# Data taken from PMC9503459, “Antifungal Activity, Structural Stability, and Immunomodulatory Effects on Human Immune Cells of Defensin from the Lentil Lens culinaris” (Membranes, 2022).
# Where “and” joins values, the source holds several entries; their conditions need not be identical. Identical values can stand only once. No end group written: not given here.
# Tested on: clinical isolate of C. krusei (225/2)
# Assay: Antifungal microdilution assay, C. krusei
# Type: cell-based, Candida krusei
# Conditions: 24 h; for inhibition of the growth: C. krusei
# Description: The clinical isolates of Candida albicans (v47a3), C. krusei (225/2) and C. glabrata (252/2) were collected from patients with human immunodeficiency virus (HIV) infection and provided by G.N. Gabrichevsky Research Institute for Epidemiology and Microbiology (Moscow, Russia). Strains stocks were kept at −70 ℃ in 10% nonfat milk with 10% glycerol.
# Antifungal susceptibility tests were performed by the microdilution method using 96-well microplates. Yeast cells in stock were inoculated onto modified YPD (yeast extract 5 g/L, peptone 10 g/L, glucose 10 g/L) agar plates, and incubated for 24 h at 37 ℃. After replating, cells were cultured in modified YPD broth at 37 ℃ to optical density 1.0 at 540 nm. Further, yeast cells in modified YPD broth at concentration of 5 × 10^4 cells/mL were mixed with equal volumes of serial two-fold dilutions of the peptide in water which started at the highest peptide concentration of 200 µM. Final peptide concentrations in the wells were 100, 50, 25, 12.5, 6.25, 3.125, and 1.56 μM. Controls without defensin were also tested. Plates were incubated at 30 ℃ during 24 h. Yeast growth was estimated using inverted microscope as well as by measuring the optical density at 540 nm. Percentage of growth inhibition was defined as: growth inhibition (%) = ((Acontrol − Asample)/Acontrol) × 100%. All of the experiments were performed twice in triplicate. The t-test was performed to study the statistical difference (p-value) between the means of controls and samples with different peptide concentrations. The experiment with lentil Lens culinaris lipid transfer protein Lc-LTP2 was carried out for comparison.
substance,measurement,setting,value
"Lc-def: defensin from lentil Lens culinaris seeds (UniProt:B3F051), recombinant, overexpressed in Escherichia coli (KTCENLSDSFKGPCIPDGNCNKHCKEKEHLLSGRCRDDFRCWCTRNC; disulfide (positions not given here); ends not checked; also: disulfide bonds present, pairing not given here; UniProt B3F051 28-74, looked up)",IC50,"C. krusei clinical isolate, microdilution, modified YPD, 30 °C, OD540, twice in triplicate, read-out: concentration causing 50% growth inhibition",25 to 50 µM and 25 µM
same,inhibition of the growth,50 μM peptide,~90%
same,inhibition of the growth,100 μM peptide,< 100%
